Laboratory results: US20050171216A1, “Germicidal compositions containing phthalaldehyde mixtures and methods of using such compositions for disinfection or sterilization” (priority 2004, published 2005)

What was measured:
[1] = test system: Mycobacterium terrae bacteria; assay: bacterial suspension test (killing of at least 1×10^6/mL bacteria); type: cell-based; details: for Log Reductions/mL: 20° C.; for Germicidal Efficacy: summary Table 14
Procedure: The bacterial suspension test that was employed is described in Section VII.
The solutions were prepared by adding the appropriate amounts of the germicidal compounds to an aqueous solution. Unless otherwise mentioned all concentrations reported herein are expressed in (w/v) %. The pH of the solution was not adjusted. The tests were conducted at a temperature of about 20° C. (room temperature). The results are presented in terms of log reductions/mL. It is understood that these examples, as well as the other examples herein, are to be construed as merely illustrative, and not limiting.
In this test method, 9 mL of the germicide to be tested is placed in a tube, put into a water bath and allowed to come to the desired temperature. One mL of the test organism, including at least 7 logs/mL of Mycobacterium terrae bacteria, is added to the 9 mL of the germicide to be tested. […] It will be appreciated by those skilled in the art that other concentrations may be utilized by proper dilution and accounting.
At appropriate time intervals, 1 mL aliquots of the germicide-cell suspension were removed and added directly into 9 mL of a 1% glycine solution (neutralizer) and mixed thoroughly to neutralize the germicide in the transferred suspension. The glycine solution was prepared from solid glycine, which is available from VWR Scientific Products, among others. The above-identified 10 mL neutralized solution was then poured through a membrane filter having an average pore size of 0.45 micrometers. The filter was then rinsed twice with at least 150 mL of the 1% glycine solution per rinse. The filter was then placed on an agar plate and incubated for twenty-one days at 37° C. In the above procedure, if dilution was needed, then the 1 mL germicidal-cell suspension was diluted in 99 mL of a phosphate buffer before addition to the 9 mL of the 1% glycine solution. The phosphate buffer was DiLu-LoK™ Butterfields Phosphate Buffer, available from Hardy Diagnostics, of Santa Maria, Calif.
The surviving colonies are then counted. The data is plotted as S/So vs. time. So is the initial count of the bacteria in the above 10 mL solution which is at least 10^6 bacteria/mL, and S is the surviving bacteria from the above filter on the agar plate. The results of the experiments were presented in terms of log reductions. Log reduction is the difference between log(So) and log(S). As one example, if log(So)=6.2, and if there were 100 survivors, then the log(S)=2, and the log reduction was reported as 4.2.

solubility in water = type: physicochemical; details: for Concentration, Saturated: saturated aqueous germicidal solution, pH not adjusted

With O=Cc1ccccc1C=O [OPA, phthalaldehyde] the “Log Reductions/mL” value ([1]; 0.14%, 5 min) was 4.8 log reductions/mL, the “Log Reductions/mL” value ([1]; 0.28%, 5 min) was 5.5 log reductions/mL and the “Germicidal Efficacy” value [1] was “Good”. For the same compound, the solubility in water (solubility in water) was “about 5 % by weight”.

For O=Cc1ccc(Cl)cc1C=O [4-chloro-phthalaldehyde], the “Log Reductions/mL” value ([1]; 0.2 w/v %, 5 min) was 5.9 log reductions/mL and the “Log Reductions/mL” value ([1]; 2.7 w/v % in 20% isopropanol, 5 min) was “Total Kill”.

For O=Cc1cccc(C=O)c1 [IPA, isophthalaldehyde], the “Log Reductions/mL” value ([1]; 0.3%, dissolved in 20% isopropanol, 5 min) was “Confluent”, the “Log Reductions/mL” value ([1]; 0.3%, dissolved in 20% isopropanol, 5 min (Table 15)) was “Confluent” and the “Germicidal Efficacy” value [1] was “Poor”.

With O=Cc1ccccc1C(O)S(=O)(=O)[O-].[Na+] (stereo not drawn) [(2-formyl-phenyl)-hydroxy-methane sulfonic acid, sodium salt] the “Log Reductions/mL” value ([1]; 9.1%, no dialdehyde, 5 min, listed as (2-formyl-phenyl)-hydroxy-methane sulfonate, sodium salt) was “confluent” and the “Log Reductions/mL” value ([1]; 9.1%, no dialdehyde, 5 min, listed as H-SULF, sodium salt) was “Confluent”.

In the case of O=Cc1ccc(Br)cc1C=O [4-bromo-phthalaldehyde], the “Log Reductions/mL” value ([1]; 0.1%, 10 minutes) is reported as 5.6 log reductions/mL and the “Log Reductions/mL” value ([1]; 0.1%, 30 minutes) is reported as “Total Kill”.

With O=CC(C=O)c1cccc(C(=O)O)c1[N+](=O)[O-] [3-(1-formyl-2-oxoethyl)-2-nitro-benzoic acid] the “Log Reductions/mL” value ([1]; Saturated (˜2.1% w/v), 5 min) was 4.0 log reductions/mL and the “Concentration, Saturated” value (solubility in water) was “(˜2.1%) w/v %”.

For O=CC(C=O)c1ccccc1 [phenyl-propanedial], the “Log Reductions/mL” value ([1]; 0.2%, 60 min) was 2.1 log reductions/mL, the “Log Reductions/mL” value ([1]; 0.22%, 60 min) was 2.1 log reductions/mL and the “Log Reductions/mL” value ([1]; 0.3%, 30 min) was 2.1 log reductions/mL. For the same compound, the “Log Reductions/mL” value ([1]; 0.33%, 30 min) was 2.1 log reductions/mL, the “Log Reductions/mL” value ([1]; 0.4%, 30 min) was 2.5 log reductions/mL and the “Log Reductions/mL” value ([1]; 0.44%, 30 min) was 2.5 log reductions/mL. For the same compound, the “Log Reductions/mL” value ([1]; 0.66%, 5 min) was less than 2.5 log reductions/mL, the “Log Reductions/mL” value ([1]; 0.66%, 10 min) was 2.5 log reductions/mL and the “Log Reductions/mL” value ([1]; 0.7%, 10 min) was 2.5 log reductions/mL. The “Log Reductions/mL” value ([1]; ˜1%, 5 min (Table 15)) was 4.5 log reductions/mL and the solubility in water (solubility in water) was “about 1%”.

For O=CC(c1ccccc1)C(O)S(=O)(=O)[O-].[Na+] (stereo not drawn) [1-hydroxy-3-oxo-2-phenyl-propane-1-sulfonic acid, sodium salt], the “Log Reductions/mL” value ([1]; 0.6%, 5 min) was 2.1 log reductions/mL, the “Log Reductions/mL” value ([1]; 0.6%, 20 min) was 2.5 log reductions/mL and the “Log Reductions/mL” value ([1]; 0.6%, 25 min) was 2.9 log reductions/mL. The “Log Reductions/mL” value ([1]; 0.6%, 60 min, sodium salt) was “total kill” and the “Log Reductions/mL” value ([1]; 2.5%, 10 min, sodium salt) was “total kill”.

For 4-pyridinyl-propanedial, the “Log Reductions/mL” value ([1]; Saturated (˜2.3% w/v), 5 min) was 4.0 log reductions/mL and the “Concentration, Saturated” value (solubility in water) was “(˜2.3%) w/v %”.

With O=Cc1ccc(F)cc1C=O [4-fluoro-phthalaldehyde] the “Log Reductions/mL” value ([1]; 0.25%, 60 minutes exposure) was “Total Kill”.

For O=Cc1ccc(C=O)cc1 [TPA, terephthalaldehyde], the “Log Reductions/mL” value ([1]; 0.2%, dissolved in 20% isopropanol, 5 min) was “Confluent” and the “Germicidal Efficacy” value [1] was “Poor”.
